Literature values in patent publication US8388671B2, “Methods for treatment of aneurysmal tissue” (Medtronic Vascular, Inc., priority 2004, dated 2013).

Legend:
[1] = tested on: rabbits
[2] = tested on: mice

With “hydroxy-polyethoxy-dodecane [Polidocanol]” as the substance, how does the LD50 in rabbits [1] read?
The LD50 in rabbits was 200 mg/kg.

What about the “LD50 relative to that of Novocain” value ([1]; LD50 greater than that of Novocain) of the same substance?
The value was “approximately 5 times”.

What about the LD50 in mice [2] of the same substance?
Its LD50 in mice is 1200 mg/kg.
